Experimental data reported in patent US11028075B2, “Therapeutic compounds and methods of use thereof” (GENENTECH, INC., priority 2018, dated 2021).
Where a name gives a salt, the structure may show the parent alone.

Experiments:
[1] = molecular target: T1, hNav1.7 (Homo sapiens (Human), UniProt Q15858); test: Tritiated compound binding to membranes from cells heterologously expressing hNav1.7 and the β1 subunit (Nav1.7 LBA); settings: competitive binding vs [3H]compound, membranes with hNav1.7 and β1 subunit; read-out: Nav1.7 LBA EVO IC50
Description: Example 93A. Tritiated Compound Binding to Membranes Isolated from Cells that Heterologously Express hNav1.7 and the β1 Subunit
Preparation of membranes containing recombinantly expressed sodium channels: Frozen recombinant cell pellets are thawed on ice and diluted to 4 times the cell pellet weight with ice cold 50 mM Tris HCl, pH 7.4 buffer. The cell suspensions are homogenized on ice using a motorized glass dounce homogeniser. Homogenates are further diluted 8.4 times with ice cold 50 mM Tris HCl, pH 7.4 buffer and then centrifuged at 200×g at 4° C. for 15 minutes. The supernatants are collected and centrifuged at 10000×g at 4° C. for 50 min. The pellets are then re-suspended in 100 mM NaCl, 20 mM Tris HCl, pH 7.4 buffer containing 1% v/v protease inhibitors (Calbiochem) and re-homogenized on ice. The homogenized membranes are then processed through a syringe equipped with a 26 gauge needle. Protein concentrations arer determined by Bradford Assay and the membranes are stored at −80° C.
Saturation experiments. A competitive NaV1.7 inhibitor having a methyl group is tritiated. Three tritiums are incorporated in place of methyl hydrogens to generate [^3H]compound. Binding of this radioligand is performed in 5 mL borosilicate glass test tubes at room temperature. Binding is initiated by adding membranes to increasing concentrations of [^3H]compound in 100 mM NaCl, 20 mM Tris HCl, pH 7.4 buffer containing 0.01% w/v bovine serum albumin (BSA) for 18 h. Non-specific binding is determined in the presence of 1 μM unlabeled compound. After 18 h, the reactants are filtered through GF/C glass fiber filters presoaked in 0.5% w/v polyethylene imine. Filters are washed with 15 mL ice cold 100 mM NaCl, 20 mM Tris HCl, pH7.4 buffer containing 0.25% BSA to separate bound from free ligand. [^3H]compound bound to filters is quantified by liquid scintillation counting.
Binding reactions are performed in 96-well polypropylene plates at room temperature for 18 h. In 360 μL, membranes are incubated with […] [^3H]compound and increasing concentrations of Test Compound. Non-specific binding is defined in the presence of 1 μM unlabeled compound. Reactions are transferred and filtered through 96-well glass fiber/C filter plates presoaked with 0.5% polyethylene imine. The filtered reactions are washed 5 times with 200 μL ice cold buffer containing 0.25% BSA. Bound radioactivity is determined by liquid scintillation counting.
Data Analysis: For saturation experiments, non-specific binding is subtracted from total binding to provide specific binding and these values are recalculated in terms of pmol ligand bound per mg protein. Saturation curves are constructed and dissociation constants are calculated using the single site ligand binding model: Beq=(Bmax*X)/(X+Kd), where Beq is the amount of ligand bound at equilibrium, Bmax is the maximum receptor density, Kd is the dissociation constant for the ligand, and X is the free ligand concentration. For competition studies percent inhibition is determined and IC50 values are calculated using a 4 parameter logistic model (% inhibition=(A+((B−A)/(1+((x/C)^D)))) using XLfit, where A and B are the maximal and minimum inhibition respectively, C is the IC50 concentration and D is the (Hill) slope.
Example 93B. Tritiated Compound Binding to Membranes Isolated from Cells that Heterologous Express hNav1.7 and the β1 Subunit
Following the procedure described in Example 93A, and making modifications as required to: centrifuge supernatants at 100000×g instead of 10000×g; re-suspend pellets in a buffer containing 0.01% BSA in addition to 100 mM NaCl, 20 mM Tris HCl, pH 7.4 buffer, and 1% v/v proteasome inhibitors; and storing membranes at −80° C. in single use aliquots instead of pooled. […]
Target sequence in this assay (Q15858 whole entry, looked up): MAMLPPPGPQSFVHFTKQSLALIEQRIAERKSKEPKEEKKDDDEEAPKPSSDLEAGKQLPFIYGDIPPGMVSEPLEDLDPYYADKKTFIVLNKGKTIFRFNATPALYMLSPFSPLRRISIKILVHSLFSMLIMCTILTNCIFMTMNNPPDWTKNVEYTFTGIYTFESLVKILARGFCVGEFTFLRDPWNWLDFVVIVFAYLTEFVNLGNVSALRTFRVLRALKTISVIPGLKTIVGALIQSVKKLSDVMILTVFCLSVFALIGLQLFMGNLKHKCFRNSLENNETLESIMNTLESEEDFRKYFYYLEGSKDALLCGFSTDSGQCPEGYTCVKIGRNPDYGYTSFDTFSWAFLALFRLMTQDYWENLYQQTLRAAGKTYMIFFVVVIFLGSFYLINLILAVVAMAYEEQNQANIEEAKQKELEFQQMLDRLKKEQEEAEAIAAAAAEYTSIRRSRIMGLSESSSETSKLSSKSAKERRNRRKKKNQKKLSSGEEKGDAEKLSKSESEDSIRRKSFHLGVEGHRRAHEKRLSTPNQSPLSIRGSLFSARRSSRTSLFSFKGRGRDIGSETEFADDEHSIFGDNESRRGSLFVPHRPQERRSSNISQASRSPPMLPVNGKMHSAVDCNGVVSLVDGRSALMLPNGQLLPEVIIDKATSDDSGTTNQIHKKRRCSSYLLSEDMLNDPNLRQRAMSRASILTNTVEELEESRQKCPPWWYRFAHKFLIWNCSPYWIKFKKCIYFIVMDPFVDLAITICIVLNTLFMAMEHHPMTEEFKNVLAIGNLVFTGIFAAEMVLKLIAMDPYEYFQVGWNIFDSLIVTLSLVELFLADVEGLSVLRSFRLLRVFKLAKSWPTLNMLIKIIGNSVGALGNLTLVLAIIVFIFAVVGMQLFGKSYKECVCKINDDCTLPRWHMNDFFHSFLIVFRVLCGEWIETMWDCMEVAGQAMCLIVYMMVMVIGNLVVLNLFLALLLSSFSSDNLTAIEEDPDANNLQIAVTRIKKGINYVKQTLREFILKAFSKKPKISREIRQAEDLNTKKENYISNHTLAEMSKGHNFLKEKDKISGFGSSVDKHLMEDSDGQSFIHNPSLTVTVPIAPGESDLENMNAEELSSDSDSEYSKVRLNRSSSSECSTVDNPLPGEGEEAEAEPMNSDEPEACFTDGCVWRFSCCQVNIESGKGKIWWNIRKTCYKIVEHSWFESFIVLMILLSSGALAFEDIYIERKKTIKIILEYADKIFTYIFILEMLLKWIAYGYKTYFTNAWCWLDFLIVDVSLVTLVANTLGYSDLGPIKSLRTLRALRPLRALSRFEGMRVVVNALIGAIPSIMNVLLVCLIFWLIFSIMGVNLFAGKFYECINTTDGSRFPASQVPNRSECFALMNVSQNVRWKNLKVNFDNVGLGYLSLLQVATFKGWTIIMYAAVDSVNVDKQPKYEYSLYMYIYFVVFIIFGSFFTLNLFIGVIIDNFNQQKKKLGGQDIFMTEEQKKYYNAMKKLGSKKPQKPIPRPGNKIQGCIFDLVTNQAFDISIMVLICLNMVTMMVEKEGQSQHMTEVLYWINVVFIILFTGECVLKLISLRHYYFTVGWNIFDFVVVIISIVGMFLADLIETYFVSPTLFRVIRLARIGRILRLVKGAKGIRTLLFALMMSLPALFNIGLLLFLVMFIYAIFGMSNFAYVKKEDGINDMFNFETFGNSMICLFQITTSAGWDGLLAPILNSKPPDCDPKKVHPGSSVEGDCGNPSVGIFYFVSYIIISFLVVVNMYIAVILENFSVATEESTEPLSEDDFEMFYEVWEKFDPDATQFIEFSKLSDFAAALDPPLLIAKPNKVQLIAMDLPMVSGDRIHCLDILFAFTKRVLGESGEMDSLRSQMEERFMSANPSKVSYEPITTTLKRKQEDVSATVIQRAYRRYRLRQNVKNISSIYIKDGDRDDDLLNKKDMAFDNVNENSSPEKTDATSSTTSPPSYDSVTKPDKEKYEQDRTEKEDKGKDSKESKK
Target sequence in this assay (Q07699 whole entry partner, looked up): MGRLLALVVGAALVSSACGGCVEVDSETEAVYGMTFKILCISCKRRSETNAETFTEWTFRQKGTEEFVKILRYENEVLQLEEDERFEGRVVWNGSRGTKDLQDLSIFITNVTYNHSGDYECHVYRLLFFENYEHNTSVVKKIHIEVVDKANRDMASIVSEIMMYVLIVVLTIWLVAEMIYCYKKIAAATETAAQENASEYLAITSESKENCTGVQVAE

[2] = molecular target: T1, hNav1.7; test: Electrophysiological assay (EP), voltage clamp on Syncropatch 384PE, CHO cells stably expressing Nav1.7; type: cell-based; settings: holding potential −50 mV, 7.5 min compound incubation, read-out: EP_SP hNav1.7 EVO IC50
Source text: Example 93C. Electrophysiological Assay (EP) (In Vitro Assay)
Patch voltage clamp electrophysiology allows for the direct measurement and quantification of block of voltage-gated sodium channels (NaV's), and allows the determination of the time- and voltage-dependence of block which has been interpreted as differential binding to the resting, open, and inactivated states of the sodium channel (Hille, B., Journal of General Physiology (1977), 69: 497-515).
The following voltage clamp electrophysiology studies are performed on representative compounds using cells heterologously expressing Nav1.7 or Nav1.5 channels. cDNAsfor Nav1.7 (NM_002977) and Nav1.5 (AC137587) are stably expressed in Chinese Hamstr Ovary (CHO) cells and CHL (Chinese Hamster Lung) cells respectively. Sodium currents are measured in the whole-cell configuration using Syncropatch 384PE (Nanlon Technologies, Germany). 1NPC®-384 chips with custom medium resistance and single hole mode are used. Internal solution consists of (in mM): […], 10 […], 20 EGTA, and 10 Hepes (pH adjusted to 7.2); and external solution contains (in mM): 60 NMDG, 80 NaCl, 4 KCl, 1 MgCl2, 2 CaCl2, 2 D-Glucose monohydrate, 10 Hepes (pH adjusted to 7.4 with NaOH).
After system flushing, testing compounds are dissolved in external solution containing 0.1% Pluronic F-127. The chip is moved into the measuring head and the instrument primes the chip with external and internal solutions. 10 μl cells are added to the chip from a cell hotel, and a negative pressure of −50 mBar is applied to form a seal. Following treatment with seal enhancer solution and wash-off with external solution, negative pressure of −250 mbar is applied for 1 second to achieve the whole-cell configuration, followed by three washing steps in external solution. 20 μl of compounds is added to 40 μl in each well (1:3 dilution of compounds), and after mixing, 20 μl is removed so the volume is retained at 40 μl. After approximately 13 minutes recordings, 20 μl/well of 2 uM TTX, or 333 uM Tetracaine (for Nav1.5) is added to achieve full block.
For voltage protocol, an holding potential of −50 mV is applied during the whole experiment. A depolarizing step is applied to −10 mV for 10 ms, followed by a hyperpolarization step to −150 mV for 20 ms to allow channel recovery from inactivation. A second depolarizing step is applied from −150 mV to −10 mV for 10 ms, where currents are measured to derive blocking effects of compounds. Inhibition is determined based on 7.5 min of compound incubation.
Target sequence in this assay (Q15858 other isoform, or with tags, fused parts or gaps): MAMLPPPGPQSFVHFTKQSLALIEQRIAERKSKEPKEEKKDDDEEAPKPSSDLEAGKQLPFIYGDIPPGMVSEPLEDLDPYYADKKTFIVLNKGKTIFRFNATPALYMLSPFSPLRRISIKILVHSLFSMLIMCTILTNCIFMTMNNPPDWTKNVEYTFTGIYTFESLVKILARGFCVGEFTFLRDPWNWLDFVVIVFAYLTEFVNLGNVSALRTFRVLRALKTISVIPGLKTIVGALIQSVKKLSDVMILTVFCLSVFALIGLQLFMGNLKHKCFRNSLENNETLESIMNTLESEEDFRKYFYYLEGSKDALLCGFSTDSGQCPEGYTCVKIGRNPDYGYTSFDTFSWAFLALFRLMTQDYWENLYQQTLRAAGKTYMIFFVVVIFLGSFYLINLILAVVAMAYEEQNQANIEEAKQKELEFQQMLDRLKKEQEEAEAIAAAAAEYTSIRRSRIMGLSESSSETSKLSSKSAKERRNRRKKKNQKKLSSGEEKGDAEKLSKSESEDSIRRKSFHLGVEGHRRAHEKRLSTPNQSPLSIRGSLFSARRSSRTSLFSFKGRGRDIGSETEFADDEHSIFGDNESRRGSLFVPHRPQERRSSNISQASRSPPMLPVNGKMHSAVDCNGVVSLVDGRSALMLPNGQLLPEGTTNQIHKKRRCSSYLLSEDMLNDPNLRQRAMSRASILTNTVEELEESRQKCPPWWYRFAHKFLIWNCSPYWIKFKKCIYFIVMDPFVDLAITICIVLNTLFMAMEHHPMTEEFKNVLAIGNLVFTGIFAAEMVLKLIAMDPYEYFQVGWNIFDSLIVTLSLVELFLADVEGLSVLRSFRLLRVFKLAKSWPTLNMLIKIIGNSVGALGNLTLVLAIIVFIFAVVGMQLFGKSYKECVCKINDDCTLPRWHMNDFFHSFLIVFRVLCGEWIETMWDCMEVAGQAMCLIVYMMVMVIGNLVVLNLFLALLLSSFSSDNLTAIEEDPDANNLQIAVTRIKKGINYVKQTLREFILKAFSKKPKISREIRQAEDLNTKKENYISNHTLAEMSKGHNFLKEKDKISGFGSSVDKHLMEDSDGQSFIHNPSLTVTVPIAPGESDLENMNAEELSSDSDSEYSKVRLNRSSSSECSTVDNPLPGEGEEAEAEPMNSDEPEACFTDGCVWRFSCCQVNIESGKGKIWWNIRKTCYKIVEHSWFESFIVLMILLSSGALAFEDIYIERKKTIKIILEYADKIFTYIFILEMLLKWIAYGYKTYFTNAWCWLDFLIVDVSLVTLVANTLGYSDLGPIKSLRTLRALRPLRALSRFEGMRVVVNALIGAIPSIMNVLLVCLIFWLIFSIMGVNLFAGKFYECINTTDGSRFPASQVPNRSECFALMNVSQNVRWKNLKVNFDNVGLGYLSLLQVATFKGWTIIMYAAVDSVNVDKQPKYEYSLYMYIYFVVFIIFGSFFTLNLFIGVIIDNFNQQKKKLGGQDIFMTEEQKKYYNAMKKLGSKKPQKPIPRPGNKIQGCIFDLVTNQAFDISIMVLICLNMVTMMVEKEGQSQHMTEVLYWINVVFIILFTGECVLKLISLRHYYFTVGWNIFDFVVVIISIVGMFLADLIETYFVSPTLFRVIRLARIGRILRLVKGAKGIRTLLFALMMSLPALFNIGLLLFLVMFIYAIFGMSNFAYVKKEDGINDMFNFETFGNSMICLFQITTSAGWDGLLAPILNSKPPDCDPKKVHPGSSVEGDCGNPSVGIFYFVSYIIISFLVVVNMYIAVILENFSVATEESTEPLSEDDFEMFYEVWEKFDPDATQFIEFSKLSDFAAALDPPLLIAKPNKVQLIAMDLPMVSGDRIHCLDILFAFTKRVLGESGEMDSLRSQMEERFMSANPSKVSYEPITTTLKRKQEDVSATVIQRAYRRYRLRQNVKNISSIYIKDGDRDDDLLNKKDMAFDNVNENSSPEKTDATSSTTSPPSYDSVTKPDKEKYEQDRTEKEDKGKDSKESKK

IC50 [1] [nM]	IC50 [2] [nM]	SMILES
0.681	0.694	O=CO.[2H]C([2H])([2H])N([C@H]1C[C@@H](c2cccc(C(F)(F)F)c2)CC[C@@H]1Nc1cc(F)c(S(=O)(=O)Nc2ccncn2)cc1Cl)C([2H])([2H])[2H] [Example 9, 4-[[(1S,2S,4S)-2-[bis(trideuteriomethyl)amino]-4-[3-(trifluoromethyl)phenyl]-cyclohexyl]amino]-5-chloro-2-fluoro-N-pyrimidin-4-yl-benzenesulfonamide formate]
25.8	2.74	CN(C)[C@H]1C[C@@H](c2cccc(C(F)(F)F)c2)CC[C@@H]1n1ccc2cc(S(=O)(=O)Nc3ccncn3)c(F)cc21 [Example 10, 1-((1S,2S,4S)-2-(Dimethylamino)-4-(3-(trifluoromethyl)phenyl)cyclohexyl)-6-fluoro-N-(pyrimidin-4-yl)-1H-indole-5-sulfonamide formate]
7.57	1.64	Cc1cccc([C@H]2CC[C@H](Nc3cc(F)c(S(=O)(=O)Nc4ccncn4)cc3Cl)[C@@H](N(C)C)C2)c1 [Example 11, 5-Chloro-4-(((1S,2S,4S)-2-(dimethylamino)-4-(m-tolyl)cyclohexyl)amino)-2-fluoro-N-(pyrimidin-4-yl)benzenesulfonamide formate]
0.473	0.531	CN(C)[C@H]1C[C@@H](c2cc(C(F)(F)F)cc(C(F)(F)F)c2)CC[C@@H]1Nc1cc(F)c(S(=O)(=O)Nc2ccncn2)cc1Cl [Example 12, 4-(((1S,2S,4S)-4-(3,5-bis(trifluoromethyl)phenyl)-2-(dimethylamino)cyclohexyl)amino)-5-chloro-2-fluoro-N-(pyrimidin-4-yl)benzenesulfonamide]
1.36	0.652	CN(C)[C@H]1C[C@@H](c2cc(C(F)(F)F)cc(C(F)(F)F)c2)CC[C@@H]1Nc1cc(F)c(S(=O)(=O)Nc2ccncn2)cc1F [Example 13, 4-(((1S,2S,4S)-4-(3,5-bis(trifluoromethyl)phenyl)-2-(dimethylamino)cyclohexyl)amino)-2,5-difluoro-N-(pyrimidin-4-yl)benzenesulfonamide]
4.64	1.63	CN(C)[C@H]1C[C@@H](c2cccc(OC(F)F)c2)CC[C@@H]1Nc1cc(F)c(S(=O)(=O)Nc2ccncn2)cc1Cl [Example 14, 5-Chloro-4-[[(1S,2S,4S)-4-[3-(difluoromethoxy)phenyl]-2-(dimethylamino)-cyclohexyl]amino]-2-fluoro-N-pyrimidin-4-yl-benzenesulfonamide]
0.886	0.61	CN(C)[C@H]1C[C@@H](c2cc(F)cc(C(F)(F)F)c2)CC[C@@H]1Nc1cc(F)c(S(=O)(=O)Nc2ccncn2)cc1Cl [Example 15, 5-Chloro-4-[[(1S,2S,4S)-2-(dimethylamino)-4-[3-fluoro-5-(trifluoromethyl)phenyl]-cyclohexyl]amino]-2-fluoro-N-pyrimidin-4-yl-benzenesulfonamide formic acid]
1.2	0.923	CN(C)[C@H]1C[C@@H](c2cccc(C(F)(F)F)c2F)CC[C@@H]1Nc1cc(F)c(S(=O)(=O)Nc2ccncn2)cc1Cl [Example 16, 5-chloro-4-(((1S,2S,4S)-2-(dimethylamino)-4-(2-fluoro-3-(trifluoromethyl)phenyl)-cyclohexyl)-amino)-2-fluoro-N-(pyrimidin-4-yl)benzenesulfonamide]
1.03	1.55	CN(C)[C@H]1C[C@@H](c2cc(C(F)(F)F)ccc2F)CC[C@@H]1Nc1cc(F)c(S(=O)(=O)Nc2ccncn2)cc1Cl [Example 17, 5-chloro-4-(((1S,2S,4S)-2-(dimethylamino)-4-(2-fluoro-5-(trifluoromethyl)phenyl)cyclohexyl)-amino)-2-fluoro-N-(pyrimidin-4-yl)benzenesulfonamide]
0.67	0.263	CN(C)[C@H]1C[C@@H](c2cccc(C3(C(F)(F)F)CC3)c2)CC[C@@H]1Nc1cc(F)c(S(=O)(=O)Nc2ccncn2)cc1Cl [Example 18, 5-chloro-4-(((1S,2S,4S)-2-(dimethylamino)-4-(3-(1-(trifluoromethyl)cyclopropyl)phenyl)-cyclohexyl)amino)-2-fluoro-N-(pyrimidin-4-yl)benzenesulfonamide]
1.36	0.673	CN(C)[C@H]1C[C@@H](c2cccc(OC(F)(F)F)c2)CC[C@@H]1Nc1cc(F)c(S(=O)(=O)Nc2ccncn2)cc1F [Example 19, 4-(((1S,2S,4S)-2-(dimethylamino)-4-(3-(trifluoromethoxy)phenyl)cyclohexyl)amino)-2,5-difluoro-N-(pyrimidin-4-yl)benzenesulfonamide]
9.43	7.38	CN(C)[C@H]1C[C@@H](c2cccc(-n3cccn3)c2)CC[C@@H]1Nc1cc(F)c(S(=O)(=O)Nc2ccncn2)cc1Cl [Example 20, 4-(((1S,2S,4S)-4-(3-(1H-pyrazol-1-yl)phenyl)-2-(dimethylamino)cyclohexyl)amino)-5-chloro-2-fluoro-N-(pyrimidin-4-yl)benzenesulfonamide formate]
12.9	8.03	CN(C)[C@H]1C[C@@H](c2cccc(-c3ccnn3C)c2)CC[C@@H]1Nc1cc(F)c(S(=O)(=O)Nc2ccncn2)cc1Cl [Example 21, 5-Chloro-4-(((1S,2S,4S)-2-(dimethylamino)-4-(3-(1-methyl-1H-pyrazol-5-yl)phenyl)-cyclohexyl)amino)-2-fluoro-N-(pyrimidin-4-yl)benzenesulfonamide]
21.2	19.4	CN(C)[C@H]1C[C@@H](c2cccc(-c3cnn(C)c3)c2)CC[C@@H]1Nc1cc(F)c(S(=O)(=O)Nc2ccncn2)cc1Cl [Example 22]
